Laboratory results: patent publication US3935309A, “Synergistic combinations of phosphonomycin and bacteriostatic agents” (Merck & Co., Inc., priority 1974, dated 1976)

Legend:
[1] = tested on: Klebsiella pneumoniae "B"; test: Combined antibiotic therapy of experimental infection in mice (Example 5); assay type: in vivo, mice infected with Klebsiella pneumoniae "B"; details: for s.c. ED50: 7 LD50
Source text: (§1) For example, using Escherichia coli 2017 as the infecting agent, sodium phosphonomycin was titrated alone and in the presence 5 and also in the presence of 0.5γtetracycline, while tetracycline was titrated alone and in the presence of 50γ, and also in the presence of 5γof sodium phosphonomycin. The two drugs were given by the subcutaneous route at separate sites on the ventral surface of the mouse. Such therapy was given only at the time of infection for the Escherichia coli and Pseudomonas aeruginosa tests but both at the time of infection and 6 hours later for all other tests. Infection was given intraperitoneally using broth suspensions of the test organism.

[2] = tested on: Pseudomonas aeruginosa 3210; test: as above; assay type: in vivo, mice infected with Pseudomonas aeruginosa 3210; details: for s.c. ED50: 10 LD50
Source text: as §1

[3] = tested on: Proteus vulgaris; test: MIC by two-fold serial broth dilution, alone and in combination (Example 1); assay type: cell-based
Procedure: (§2) The MIC (minimum inhibitory concentration) of phosphonomycin and each of the other antibiotics by itself was determined before the combination synergy experiment was begun, as follows: 2 ml. of a double strength solution in sterile distilled water of the highest strength to be tested (usually 1000γ) was added to a tube of double strength nutrient broth (NB) and mixed thoroughly. Two-fold serial dilutions were then made by transferring 2 ml. to the next tube (1 × NB) and so on for approximately 12 tubes. The tubes were inoculated with one drop each of a 1:50 dilution of a culture adjusted to a Lumetron 60 reading in NB + 0.2% yeast extract so as to provide a concentration of cells of approximately 25,000/ml. The tubes were then incubated at 37°C. and examined for growth at 24, 48 and 72 hours.
(§3) In the combination experiment, the MIC value obtained as described above was used as approximately the midpoint of the range to be tested for each of the two antibiotics of the combination. In a manner similar to the above, two-fold dilutions of the first substance in the combination were made except that 1.8 ml. volumes were used and a 2.2 × strength solution of both the antibiotic and the NB were made. The second antibiotic of the combination was added to duplicate rows of serial dilutions of the first substance as follows: 0.2 ml. in NB of a [formula] and a [formula] respectively, of the second substance was added to each tube in a row of serial dilutions of the first antibiotic. The final concentration that resulted enabled the determination of the effect of both MIC/4 and MIC/8 of each substance in the presence of from approximately 32 MIC to [formula] of the other. Inocula were added as in the initial single MIC experiment.

[4] = tested on: Klebsiella pneumoniae; test: as above; assay type: cell-based
Procedure: as §2, §3

[5] = tested on: Staphylococcus aureus; test: as above; assay type: cell-based
Procedure: as §2, §3

[6] = tested on: Pseudomonas stutzeri; test: as above; assay type: cell-based
Procedure: as §2, §3

[7] = tested on: Pseudomonas aeruginosa; test: as above; assay type: cell-based
Procedure: as §2, §3

[8] = tested on: Streptococcus faecalis; test: as above; assay type: cell-based
Procedure: as §2, §3

[9] = tested on: pathogenic bacteria; test: in vitro combination tests with various pathogens (general description); assay type: cell-based; details: for potentiation when combined with phosphonomycin: various strains of pathogenic bacteria
Source text: Other experimental results have shown that novobiocin, chlortetracycline and sulfisoxazole are potentiated when combined with phosphonomycin and tested with various strains of pathogenic bacteria.

[10] = tested on: Streptococcus pyogenes 3009; test: Combined antibiotic therapy of experimental infection in mice (Example 5); assay type: in vivo, mice infected with Streptococcus pyogenes 3009; details: 6 LD50
Source text: as §1

[11] = tested on: Escherichia coli 2017; test: Combined antibiotic therapy of Escherichia coli infection in mice (Example 5); assay type: in vivo, mice infected with Escherichia coli 2017; parameters: ED50: unit not given beside the values; details: for ED50 / % of effective dose: first test
Source text: as §1

[12] = alone, therapy at 0 and 6 hours, phosphonomycin as sodium salt
[13] = novobiocin itself, at the levels tested
[14] = tetracycline titrated, phosphonomycin constant 500
[15] = tetracycline titrated, phosphonomycin constant 1000
[16] = combination of 54% tetracycline with .5% sodium phosphonomycin
[17] = phosphonomycin titrated in the presence of 0.5γ tetracycline
[18] = tetracycline titrated in the presence of 50γ sodium phosphonomycin
[19] = tetracycline repeat test, 7 LD50, tetracycline titrated, phosphonomycin constant 0.5
[20] = tetracycline repeat test, 7 LD50, tetracycline titrated, phosphonomycin constant 50
[21] = tetracycline test 1, 9 LD50, alone
[22] = tetracycline test 1, 9 LD50, tetracycline titrated, phosphonomycin constant 5
[23] = tetracycline test 1, 9 LD50, tetracycline titrated, phosphonomycin constant 50

Structure (SMILES): CO[C@@H]1[C@@H](OC(N)=O)[C@@H](O)[C@H](Oc2ccc3c(O)c(NC(=O)c4ccc(O)c(CC=C(C)C)c4)c(=O)oc3c2C)OC1(C)C [Novobiocin]
- s.c. ED50 [1, 12]: > 2500 µg
- s.c. ED50 ([1]; novobiocin titrated, phosphonomycin > 100): > 2500 µg
- s.c. ED50 ([1]; novobiocin with phosphonomycin > 10): > 2500 µg
- protection of mice [1, 13]: did not protect
- s.c. ED50 ([2]; alone, therapy at 0 hour only, phosphonomycin as sodium salt): > 10000 µg
- s.c. ED50 ([2]; novobiocin titrated, phosphonomycin > 20): > 10000 µg
- s.c. ED50 ([2]; novobiocin with phosphonomycin >200): > 10000 µg
- protection of mice [2, 13]: did not protect
- MIC of 2nd Subst. in presence of ≤ MIC/4 of phosphonomycin [3]: 3.9
- MIC ([3]; Proteus vulgaris, read-out: MIC of 2nd Subst.): 32 µg/mL
- MIC of 2nd Subst. in presence of ≤ MIC/4 of phosphonomycin [4]: < 2
- MIC ([4]; Klebsiella pneumoniae, alone, read-out: MIC of 2nd Subst.): 32 µg/mL
- MIC ([5]; Staphylococcus aureus, read-out: MIC of 2nd Subst.): 0.06 µg/mL
- MIC of 2nd Subst. in presence of phosphonomycin ([5]; in presence of MIC/2 instead of ≤ MIC/4): 0.015 µg/mL
- MIC of 2nd Subst. in presence of ≤ MIC/4 of phosphonomycin [6]: 8
- MIC ([6]; Stutzerimonas stutzeri, alone, read-out: MIC of 2nd Subst.): 32 µg/mL
- MIC of 2nd Subst. in presence of ≤ MIC/4 of phosphonomycin [7]: 62.5
- MIC ([7]; Pseudomonas aeruginosa, read-out: MIC of 2nd Subst.): 250 µg/mL
- MIC of 2nd Subst. in presence of ≤ MIC/4 of phosphonomycin [8]: 4
- MIC ([8]; Enterococcus faecalis, read-out: MIC of 2nd Subst.): 4 µg/mL
- control of pathogens by combination with phosphonomycin [9]: effective in controlling pathogens which cannot be effectively controlled by either antibiotic separately
- potentiation when combined with phosphonomycin [9]: potentiated

Structure (SMILES): CN(C)C1C(=O)C(C(N)=O)=C(O)C2(O)C(=O)C3=C(O)c4c(O)cccc4C(C)(O)C3CC12 (stereo not drawn) [Tetracycline]
- % ED50 ([10]; alone): 100%
- s.c. ED50 [10, 12]: 55 µg
- % ED50 [10, 14]: 36%
- s.c. ED50 [10, 14]: 35 µg
- % ED50 [10, 15]: 33%
- s.c. ED50 [10, 15]: 18 µg
- ED50 ([11]; alone): 50 γ
- % of effective dose [11, 16]: 54%
- % of effective dose [11, 17]: 1%
- % of effective dose [11, 18]: 25%
- ED50 ([11]; titrated in the presence of 50γ sodium phosphonomycin): 13 γ
- % ED50 ([11]; tetracycline repeat test, 7 LD50, alone): 100%
- s.c. ED50 ([11]; tetracycline repeat test, 7 LD50, alone, single dose at 0 hour, phosphonomycin as sodium salt): 31 µg
- % ED50 ([11]; tetracycline repeat test, 7 LD50, phosphonomycin titrated, tetracycline constant 1): 3%
- % ED50 ([11]; tetracycline repeat test, 7 LD50, phosphonomycin titrated, tetracycline constant 10): 32%
- % ED50 [11, 19]: 23%
- s.c. ED50 [11, 19]: 7 µg
- % ED50 [11, 20]: 100%
- s.c. ED50 [11, 20]: 31 µg
- % ED50 [11, 21]: 100%
- % ED50, Combined % [11, 21]: 100%
- s.c. ED50 ([11]; tetracycline test 1, 9 LD50, alone, single dose at 0 hour, phosphonomycin as sodium salt): 50 µg
- % ED50 ([11]; tetracycline test 1, 9 LD50, phosphonomycin titrated, tetracycline constant 0.5): 1%
- % ED50 ([11]; tetracycline test 1, 9 LD50, phosphonomycin titrated, tetracycline constant 5): 10%
- % ED50 [11, 22]: 54%
- s.c. ED50 [11, 22]: 27 µg
- % ED50 [11, 23]: 25%
- s.c. ED50 [11, 23]: 13 µg
- enhancement of tetracycline activity ([11]; two tests, constant quantity of sodium phosphonomycin): enhanced

Structure (SMILES): C[C@@H]1O[C@@H]1P(=O)(O)O [sodium phosphonomycin]
- interaction of combination ([1]; 1 mg. of novobiocin included in the dose): could be considered as potentiation
- sodium phosphonomycin required to protect the mice ([1]; 1 mg. of novobiocin included in the dose vs its absence): less sodium phosphonomycin was required to protect the mice
- ED50 ([11]; alone): 1000 γ
- % of effective dose [11, 16]: .5%
- % of effective dose [11, 17]: 100%
- % of effective dose [11, 18]: 5%
- ED50 ([11]; titrated in the presence of 0.5γ tetracycline): 1000 γ
- enhancement of sodium phosphonomycin activity ([11]; two tests, constant quantity of tetracycline): In neither test did a constant quantity of tetracycline enhance sodium phosphonomycin activity

Structure (SMILES): Cc1noc(NS(=O)(=O)c2ccc(N)cc2)c1C [sulfisoxazole]
- potentiation when combined with phosphonomycin [9]: potentiated
